“Also recorded” adds a separate entry of the source. Read-outs that look alike come from different tables or passages of the source.
Key:
[1] = biological target: T1, human alpha1,beta2,gamma2 Long GABAA receptor subtype (Homo sapiens, UniProt P14867+P47870); assay: Patch-clamp (Dynaflow system) current response in HEK-293 cells transfected with alpha1,beta2,gamma2 Long GABAA receptor; type: cell-based
T1 construct: expressed in transfected cells; host or cells: HEK-293
Experimental: (§1) In these tests the protocol was optimized to be similar to the physiological conditions in the synaptic cleft.
(§2) Cell culture: HEK-293 cells, permanently transfected with the human alpha1,beta,gamma and alpha4,beta,delta GABAA receptor subtypes, were seeded at a density of 3×10^4/25 cm^2 in a culture flask. The transfected cells were used for patch-clamp experiments 3 days after seeding. When using the cells for patch-clamp experiments the cells were washed twice with oxygen-bubbled extra cellular (EC) solution (see below). About 5 mL EC was then added and the cells were kept in the incubator for about 15 minutes. After 15 minutes the cells came loose from the bottom of the flask and were separated by carefully sucking a couple of times with a Pasteur pipette.
(§3) Dynaflow™ system with Resolve chip was used for patch-clamp experiments: The electrophysiological recordings from HEK-293 cells were performed under voltage-clamp conditions using patch-clamp technique and the Dynaflow™ system (Dynaflow Pro II Platform Zeiss Axiovert 25; Cellectricon AB, Sweden) with Resolve chips as application system.
(§4) Patch pipettes were pulled from borosilicate glass and polished to a resistance 2-5 MΩ when filled with suitable intracellular solution (IC) (pH was adjusted to 7.2) and immersed in bath solution (extracellular, EC) (pH is adjusted to 7.4).
(§5) The recordings were made using an Axopatch 200B amplifier, a Digidata 1322A (Axon instruments, Foster city, USA). Data were analysed using the pCLAMP software sampled at 10 kHz, filtered at 2-10 kHz and analyzed with Clampfit (versions 9.0, both from Axon instruments, Foster city, USA). No higher series resistance than 20 MΩ between pipette and cell membrane was accepted. No series resistance compensation was used. The stability of series resistance was monitored repeatedly from the time course of capacitative transients during the experiments. The measured liquid-junction potential between EC and IC was subtracted in all data presented. All experiments were performed at room temperature (21-23° C.).
(§6) All steroids were dissolved to the concentration of 6 mM in DMSO. […] End solutions were the solutions added into the wells of the chip.
(§7) Electrophysiology: After compensating for the liquid junction potential a steady holding potential of −17 mV was used in all experiments. […] By using the holding potential of −17 mV and the intracellular solution with low chloride ion concentration the chloride ions flux into the cell when the receptors were activated.
The Dynaflow system allowed application of solutions for as short as 40 ms up to minutes in time.
In the experiments, THDOC and 3alpha-OH-adiol were used as the positive GABAA receptor modulating steroids.
(§8) Different incubation times were studied to achieve the optimal time for attaining stable results and minimize the washout time.
Study design: Studies were conducted on current response mediated by chloride ion flux through the GABAA receptor. […] The same patch-clamp technique was used as described above (Example 1) using the Dynaflow™ application system. THDOC was used as positive GABAA receptor modulating steroid as it has shorter washout time compared to allopregnanolone but works with the same mechanisms on the same GABAA receptor binding site as allopregnanolone.
HEK-293 cells, permanently transfected with cDNA expressing the human alpha1,beta2,gamma2 Long GABAA receptor subtype. The tissue culture and the handling of the cells were as described in Example 1. In the patch-clamp experiments the transfected cells were used minimum two passages after defrosting and 3 days after seeding. The cells were seeded for maximal 25 times.

[2] = biological target: T2, human alpha4,beta,delta GABAA receptor subtype (Homo sapiens, UniProt P28472+P48169); assay: Patch-clamp (Dynaflow system) current response in HEK-293 cells transfected with alpha4,beta3,delta GABAA receptor; type: cell-based
T2 construct: expressed in transfected cells; host or cells: HEK-293
T2 sequence (P48169 36-554): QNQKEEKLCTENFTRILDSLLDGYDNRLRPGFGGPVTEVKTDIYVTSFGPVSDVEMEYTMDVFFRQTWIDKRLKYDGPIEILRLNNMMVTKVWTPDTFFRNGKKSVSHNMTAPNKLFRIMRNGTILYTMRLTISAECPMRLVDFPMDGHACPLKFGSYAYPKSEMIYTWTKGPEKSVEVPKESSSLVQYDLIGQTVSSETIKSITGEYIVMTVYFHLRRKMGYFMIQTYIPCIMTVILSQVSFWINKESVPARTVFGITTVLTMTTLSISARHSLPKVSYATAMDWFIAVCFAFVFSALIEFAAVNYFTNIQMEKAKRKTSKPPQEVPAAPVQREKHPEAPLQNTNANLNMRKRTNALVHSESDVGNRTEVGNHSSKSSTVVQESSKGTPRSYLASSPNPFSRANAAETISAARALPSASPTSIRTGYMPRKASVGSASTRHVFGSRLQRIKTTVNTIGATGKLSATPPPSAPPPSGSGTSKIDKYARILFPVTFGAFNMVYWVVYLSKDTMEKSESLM
T2 sequence (P28472 26-473): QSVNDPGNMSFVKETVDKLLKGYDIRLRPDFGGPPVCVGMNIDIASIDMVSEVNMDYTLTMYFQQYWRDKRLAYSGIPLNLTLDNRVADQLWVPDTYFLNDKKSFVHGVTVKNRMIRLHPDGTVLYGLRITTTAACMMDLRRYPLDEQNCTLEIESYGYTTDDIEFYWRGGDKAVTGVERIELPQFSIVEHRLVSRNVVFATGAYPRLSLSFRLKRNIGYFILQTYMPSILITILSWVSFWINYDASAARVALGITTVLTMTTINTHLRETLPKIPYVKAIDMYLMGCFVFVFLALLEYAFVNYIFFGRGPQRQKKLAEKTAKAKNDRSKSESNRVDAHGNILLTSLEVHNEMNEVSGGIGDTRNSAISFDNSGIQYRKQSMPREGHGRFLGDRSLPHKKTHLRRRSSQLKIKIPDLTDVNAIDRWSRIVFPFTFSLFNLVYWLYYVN
T2 sequence (O14764 17-452 partner limits assumed): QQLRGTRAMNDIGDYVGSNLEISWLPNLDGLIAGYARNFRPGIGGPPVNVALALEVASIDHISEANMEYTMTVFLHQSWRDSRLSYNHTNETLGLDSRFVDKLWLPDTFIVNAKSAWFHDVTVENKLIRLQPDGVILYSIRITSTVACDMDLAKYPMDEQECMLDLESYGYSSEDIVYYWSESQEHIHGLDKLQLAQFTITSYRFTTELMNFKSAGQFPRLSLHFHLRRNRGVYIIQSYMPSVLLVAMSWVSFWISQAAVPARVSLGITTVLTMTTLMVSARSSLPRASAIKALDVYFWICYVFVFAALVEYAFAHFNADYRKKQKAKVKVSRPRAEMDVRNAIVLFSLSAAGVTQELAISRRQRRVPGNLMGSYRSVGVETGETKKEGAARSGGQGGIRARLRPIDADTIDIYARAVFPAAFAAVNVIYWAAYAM
Experimental: as §1, §2, §3, §4, §5, §6, §7
The Dynaflow system allowed application of solutions for as short as 40 ms up to minutes in time. […] There was no difference in response between the second and the third GABA application. Therefore, the first GABA application was always repeated twice and the second response was used in the analysis.
Washout: GABA is quite soluble in water and easy to washout from the receptor. […] Steroids on the other hand were difficult to dissolve in water and also difficult to washout from the receptor. In the experiments, THDOC and 3alpha-OH-adiol were used as the positive GABAA receptor modulating steroids. With 2 minutes washout time, 200 nM THDOC and 3alpha-OH-adiol was completely washed out as shown by neither an accumulative nor a desensitization effect.
as §8

female Wistar rats = assay: Allopregnanolone-induced loss of righting reflex (LoR) test; type: in vivo, rat; details: for Animals (%) not showing LoR after allopregnanolone injection: allopregnanolone 2 mg/kg i.v.
Experimental: The compound by 3beta-fluor-5alpha-pregnan-20-one (UC2016) was analyzed for antagonism of the allopregnanolone-induced loss of righting reflex (LoR) in female Wistar rats.
Study design: Allopregnanolone was dissolved 2 mg/ml in 10% 2-hydroxy-beta-cyclodextrin (beta-CD), with the use of ultra sound. 3beta-fluor-5alpha-pregnan-20-one (UC2016) dissolved in MCT (10 mg/ml) was injected s.c. 30 and 60 minutes before i.v. 2 mg/kg allopregnanolone. UC2016, in different concentrations (1-20 mg/kg) were given s.c. 30 or 60 minutes before the acute i.v. allopregnanolone-induced LoR. To study if MCT oil alone interferes with the acute i.v. allopregnanolone-induced LoR, MCT oil was given s.c. 30 or 60 min before the allopregnanolone injection. Doses given were from 1 mg/kg to 20 mg/kg UC2016 s.c.
Animals: Female Wistar rats (n=12) from Taconics, Denmark were used. At arrival rats weighted 250 g. For identification the rats were marked with numbers on their tail with a permanent marker. The animals were housed four in each cage for 6 weeks and thereafter two in each cage at the Umea Centre for Comparative Biology (UCCB) animal facility at Umea University, where also all experiments took place. Housing room temperature was kept at 22-23° C. Lights on and off were monitored 12/12 h light/dark; lights on at 06.00 and off at 18.00. Food and water was available ad libitum. The study protocol was approved by the Regional Ethics Committee of Umeå, Sweden.
Handling: To avoid stress during the experimental session, animals were daily handled the week before testing. Handling included moments used during the test, i.e. holding, tail warming in water, and wrapping in op-blanket.
Solutions: Allopregnanolone (Umecrine AB, batch L00019654), was dissolved in 10% or 30% 2-hydroxypropyl-β-cyclodextrin (HPβ-CD; Sigma, H-107) with the use of ultra sound. MCT oil and Solution of UC2016; 10 mg/ml in MCT oil, were provided by XSpray Microparticles AB (Stockholm).
Allopregnanolone-induced loss of righting reflex (LoR) test: During testing, the rat was weighted, the tail was warmed in water (43° C.) for three minutes, and the rat was wrapped in an op-blanket and hold for injection. The test solution was injected i.v. in one of the tail veins during 30 s (optimal injection rate for allopregnanolone, 4 mg/kg/min, Zhu et al 2001), and the needle then kept in place for additional 30 s. The time point for the end of the actual injection was noted. The rat was then placed in a separate cage and LoR was tested by laying the rat on the right side. Rats with LoR stayed on side, and the time until righting was followed. Rats with no LoR could not be placed on side, as the righting reflex immediate corrected the orientation of the body so that the rat was standing on its paws. The effects of the different injections were followed by the two evaluators for approximately 10 min, and the rat was then taken back to its home cage. LoR is an early event at anesthesia, and this fact is used in the test. Allopregnanolone is a strong anesthetic substance, an agonist at the GABAA receptor, and LoR is in the test induced during the 30 seconds with the injection of the substance. At tests of possible allopregnanolone antagonists, the antagonistic effect is thus observed immediately after the injection, i.e. when the rat is placed in the test cage.

T1 sequence (P14867 28-456): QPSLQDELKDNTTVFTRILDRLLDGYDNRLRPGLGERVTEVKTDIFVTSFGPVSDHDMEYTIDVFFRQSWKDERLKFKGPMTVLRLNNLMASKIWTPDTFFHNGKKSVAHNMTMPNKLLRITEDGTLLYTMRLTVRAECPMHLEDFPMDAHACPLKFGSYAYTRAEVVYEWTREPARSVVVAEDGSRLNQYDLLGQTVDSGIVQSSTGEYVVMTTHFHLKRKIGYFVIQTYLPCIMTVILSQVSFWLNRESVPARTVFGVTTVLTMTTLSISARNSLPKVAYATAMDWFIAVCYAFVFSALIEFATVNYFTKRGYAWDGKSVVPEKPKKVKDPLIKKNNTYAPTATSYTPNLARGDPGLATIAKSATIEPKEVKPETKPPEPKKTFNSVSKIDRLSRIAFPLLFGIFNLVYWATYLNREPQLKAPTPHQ
T1 sequence (P47870 25-512 limits assumed): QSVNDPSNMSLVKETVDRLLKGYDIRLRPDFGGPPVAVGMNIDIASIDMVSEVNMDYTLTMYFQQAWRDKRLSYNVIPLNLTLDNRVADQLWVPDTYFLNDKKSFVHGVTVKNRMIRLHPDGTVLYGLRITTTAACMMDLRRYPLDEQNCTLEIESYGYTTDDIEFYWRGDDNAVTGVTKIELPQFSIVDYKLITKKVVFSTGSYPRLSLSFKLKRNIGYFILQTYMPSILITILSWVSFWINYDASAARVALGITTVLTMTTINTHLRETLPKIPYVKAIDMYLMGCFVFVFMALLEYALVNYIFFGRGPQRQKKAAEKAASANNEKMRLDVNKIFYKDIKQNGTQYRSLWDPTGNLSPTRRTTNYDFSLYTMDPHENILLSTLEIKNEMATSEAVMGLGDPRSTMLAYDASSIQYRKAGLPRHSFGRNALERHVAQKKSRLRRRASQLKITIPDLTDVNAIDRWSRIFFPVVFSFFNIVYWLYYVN
T1 sequence (P18507 40-475 partner): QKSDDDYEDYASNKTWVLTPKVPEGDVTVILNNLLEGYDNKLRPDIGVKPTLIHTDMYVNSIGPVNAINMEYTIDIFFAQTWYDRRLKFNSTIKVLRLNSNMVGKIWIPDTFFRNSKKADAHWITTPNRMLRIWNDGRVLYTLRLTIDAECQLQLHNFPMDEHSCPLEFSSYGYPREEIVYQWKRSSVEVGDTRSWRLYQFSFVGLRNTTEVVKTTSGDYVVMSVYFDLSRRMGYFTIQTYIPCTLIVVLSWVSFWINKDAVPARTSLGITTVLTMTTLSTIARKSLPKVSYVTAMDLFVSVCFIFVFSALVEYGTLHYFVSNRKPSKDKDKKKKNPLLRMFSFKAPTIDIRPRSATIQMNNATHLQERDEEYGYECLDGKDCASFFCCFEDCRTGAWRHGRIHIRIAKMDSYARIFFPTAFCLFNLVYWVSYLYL

C[C@]12CC[C@@H](O)C[C@H]1CC[C@@H]1[C@@H]2CC[C@]2(C)[C@@H](C(=O)CO)CC[C@@H]12 [THDOC, Tetrahydrodeoxycorticosterone, reference compound]
Imax/Emax ([1]; 0.03-1 μM THDOC + 30 μM GABA): +115%
THDOC induced tonic effect (baseline shift) ([1]; without GABA): did not induce any baseline shift
Emax, enhancement of GABA mediated current response [2]: 297%
EC50 ([2]; read-out: EC50, enhancement of GABA mediated current response): 47 nM
THDOC induced baseline shift ([2]; without GABA, data not shown): induces a baseline shift

CC(=O)[C@H]1CC[C@H]2[C@@H]3CC[C@H]4C[C@H](O)CC[C@]4(C)[C@H]3CC[C@]12C [Allopregnanolone, allopregnanolone, reference compound]
Induction of LoR (female Wistar rats; allopregnanolone 2 mg/kg i.v. alone): induces LoR in all female Wistar rats

C[C@]12CC[C@@H](O)C[C@@H]1CC[C@@H]1[C@@H]2CC[C@]2(C)C(O)CC[C@@H]12 (stereo partly drawn) [Androstanediol, 3alpha-hydroxy-5alpha-androstan-17-ol, reference compound]
EC50 [1]: 3400 nM
Androstanediol effect without GABA ([1]; data not shown): no effect without GABA
EC50 [2]: 380 nM
Baseline shift, current response in absence of GABA, Mean ± SEM pA ([2]; 3 μM Androstanediol): +8 ± 3.6 pA
Baseline shift, current response in absence of GABA, Mean ± SEM pA ([2]; 10 μM Androstanediol): +13 ± 4.8 pA

CC(=O)[C@H]1CC[C@H]2[C@@H]3CC[C@H]4C[C@@H](F)CC[C@]4(C)[C@H]3CC[C@]12C [UC2016, 3beta-fluor-5alpha-pregnan-20-one]
[UC2016] + 30 μM GABA + 200 nM THDOC, Mean ± SEM (%) ([1]; 0.1 μM UC2016): −4.7 ± 3.5%
[UC2016] + 30 μM GABA + 200 nM THDOC, Mean ± SEM (%) ([1]; 0.3 μM UC2016): −11.6 ± 5.5%
[UC2016] + 30 μM GABA + 200 nM THDOC, Mean ± SEM (%) ([1]; 1 μM UC2016): −25.1 ± 3.5%
Imax/Emax, effect on GABA response ([1]; 1 μM UC2016 + 30 μM GABA): −8.6 ± 1.7%
Effect of compound alone (baseline shift) ([1]; 1 μM UC2016, absence of GABA): no effect on baseline shift; also recorded: UC2016 had no effect in absence of GABA
Antagonism of allopregnanolone induction of LoR (female Wistar rats; 1 mg/kg s.c., 60 min before allopregnanolone): clearly antagonized
Inhibition of LoR induction by allopregnanolone (female Wistar rats; 5 mg/kg s.c., 30 minutes before allopregnanolone): not
Inhibition of LoR induction by allopregnanolone (female Wistar rats; 5 mg/kg s.c., 60 minutes before allopregnanolone): had an inhibitory effect
Inhibition of LoR induction by allopregnanolone (female Wistar rats; 10 mg/kg or higher s.c., 30 min before allopregnanolone): inhibited LoR induction
Animals (%) not showing LoR after allopregnanolone injection (female Wistar rats; UC2016 1 mg/kg s.c. in MCT oil): 100%
Animals (%) not showing LoR after allopregnanolone injection (female Wistar rats; UC2016 2 mg/kg s.c. in MCT oil): 80%
Animals (%) not showing LoR after allopregnanolone injection (female Wistar rats; UC2016 10 mg/kg s.c. in MCT oil): 100%
Animals (%) not showing LoR after allopregnanolone injection (female Wistar rats; UC2016 20 mg/kg s.c. in MCT oil): 100%
